According to ChEMBL document CHEMBL1949630, “Discovery of benzodihydroisofurans as novel, potent, bioavailable and brain-penetrant prolylcarboxypeptidase inhibitors” (Bioorg Med Chem Lett, 2012):
Active and inactive are the calls of the source. No cut-off for these calls is given here.

Key:
[1] = Plasma concentration in established diet-induced obese C57BL/6 mouse at 10 mg/kg, po qd for 2 days; assay type: ADME, organism-based; set-up: dose 10 mg/kg, route oral
[2] = Fraction unbound in human plasma; assay type: ADME, cell-free
[3] = molecular target: T1, Lysosomal Pro-X carboxypeptidase (Mus musculus) (UniProt Q7TMR0); test: Inhibition of mouse PrCP in qd for 2 days po dosed established diet-induced obese C57BL/6 mouse heat inactivated plasma; assay type: organism-based
T1 sequence (whole entry): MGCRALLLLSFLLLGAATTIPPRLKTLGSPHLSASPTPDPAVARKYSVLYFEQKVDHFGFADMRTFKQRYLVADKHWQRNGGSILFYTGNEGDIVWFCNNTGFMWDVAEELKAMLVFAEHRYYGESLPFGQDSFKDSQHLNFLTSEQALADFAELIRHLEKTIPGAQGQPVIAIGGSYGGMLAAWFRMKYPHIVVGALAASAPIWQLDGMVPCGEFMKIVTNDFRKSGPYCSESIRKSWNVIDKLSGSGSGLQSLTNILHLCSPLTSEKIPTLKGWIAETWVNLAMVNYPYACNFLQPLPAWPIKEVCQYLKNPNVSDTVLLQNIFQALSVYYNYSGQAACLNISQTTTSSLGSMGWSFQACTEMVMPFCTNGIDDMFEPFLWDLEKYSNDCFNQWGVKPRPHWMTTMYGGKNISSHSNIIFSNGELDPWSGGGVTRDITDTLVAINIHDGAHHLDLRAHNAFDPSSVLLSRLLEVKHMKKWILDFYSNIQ

[4] = molecular target: T2, Lysosomal Pro-X carboxypeptidase (Mus musculus, UniProt Q7TMR0); test: Inhibition of PrCP in mouse plasma assessed as angiotensin 3 cleavage by whole serum shift assay
T2 sequence (Q7TMR0 whole entry): T1 sequence (whole entry)

[5] = molecular target: T1, Lysosomal Pro-X carboxypeptidase (Mus musculus); test: Inhibition of mouse PrCP in 10 mg/kg, po administered qd for 2 days established diet-induced obese C57BL/6 mouse heat inactivated plasma; assay type: organism-based; set-up: dose 10 mg/kg; conditions: at 10 mg/kg
[6] = Drug uptake in established diet-induced obese C57BL/6 mouse blood at 3 mg/kg, po qd for 2 days; assay type: ADME, organism-based; set-up: dose 3 mg/kg, route oral; conditions: read-out: Drug uptake
[7] = test system: Mus musculus; test: Antiobesity activity in established diet-induced obese C57BL/6 mouse assessed as reduction of body weight at 30 mg/kg, po qd for 5 days; assay type: functional, organism-based; set-up: dose 30 mg/kg
[8] = Oral bioavailability in rat at 2 mg/kg by LC/MS/MS analysis; assay type: ADME, organism-based; conditions: in vivo
[9] = Plasma concentration in established diet-induced obese C57BL/6 mouse at 3 mg/kg, po qd for 2 days; assay type: ADME, organism-based; set-up: dose 3 mg/kg, route oral
[10] = Drug uptake in PrCP knockout mouse brain at 30 mg/kg, po qd for 5 days measured on day 6; assay type: ADME, organism-based; set-up: dose 30 mg/kg, route oral; conditions: read-out: Drug uptake
[11] = Plasma concentration in PrCP knockout mouse at 30 mg/kg, po qd for 5 days measured on day 6; assay type: ADME, organism-based; set-up: dose 30 mg/kg, route oral
[12] = Drug uptake in established diet-induced obese C57BL/6 mouse brain at 30 mg/kg, po qd for 2 days; assay type: ADME, organism-based; set-up: dose 30 mg/kg, route oral; conditions: read-out: Drug uptake
[13] = Clearance in C57BL/6 mouse at 1 mg/kg, iv and 2 mg/kg, po by LC/MS/MS analysis; assay type: ADME, organism-based; conditions: in vivo
[14] = test system: Rattus norvegicus; test: Dose normalized AUC in rat at 2 mg/kg by LC/MS/MS analysis; assay type: ADME, organism-based; set-up: dose 2 mg/kg; conditions: in vivo
[15] = Drug uptake in established diet-induced obese C57BL/6 mouse brain at 10 mg/kg, po qd for 2 days; assay type: ADME, organism-based; set-up: dose 10 mg/kg, route oral; conditions: read-out: Drug uptake
[16] = Ratio of drug level in brain to plasma in wild type CF1 mouse at 3 mg/kg, po after 4 hrs; assay type: ADME, organism-based; set-up: dose 3 mg/kg, route oral; conditions: brain and plasma, read-out: BPR
[17] = Drug uptake in established diet-induced obese C57BL/6 mouse blood at 30 mg/kg, po qd for 2 days; assay type: ADME, organism-based; set-up: dose 30 mg/kg, route oral; conditions: read-out: Drug uptake
[18] = Drug uptake in established diet-induced obese C57BL/6 mouse brain at 3 mg/kg, po qd for 2 days; assay type: ADME, organism-based; set-up: dose 3 mg/kg, route oral; conditions: read-out: Drug uptake
[19] = Half life in dog at 1 mg/kg, iv and 2 mg/kg, po by LC/MS/MS analysis; assay type: ADME, organism-based, Canis lupus familiaris; conditions: in vivo
[20] = Fraction unbound in mouse plasma; assay type: ADME, cell-free
[21] = Clearance in dog at 1 mg/kg, iv and 2 mg/kg, po by LC/MS/MS analysis; assay type: ADME, organism-based, Canis lupus familiaris; conditions: in vivo
[22] = test system: Canis familiaris; test: Dose normalized AUC in dog at 2 mg/kg by LC/MS/MS analysis; assay type: ADME, organism-based, Canis lupus familiaris; set-up: dose 2 mg/kg; conditions: in vivo
[23] = molecular target: T1, Lysosomal Pro-X carboxypeptidase (Mus musculus); test: Inhibition of mouse PrCP in 30 mg/kg, po qd for 5 days established diet-induced obese wild type C57BL/6 mouse heat inactivated brain homogenates measured on day 6; assay type: organism-based; set-up: dose 30 mg/kg; conditions: at 30 mg/kg
[24] = Plasma concentration in established diet-induced obese C57BL/6 mouse at 30 mg/kg, po qd for 2 days; assay type: ADME, organism-based; set-up: dose 30 mg/kg, route oral
[25] = Volume of distribution at steady state in C57BL/6 mouse at 1 mg/kg, iv and 2 mg/kg, po by LC/MS/MS analysis; assay type: ADME, organism-based; conditions: in vivo, read-out: Vdss
[26] = Volume of distribution at steady state in rat at 1 mg/kg, iv and 2 mg/kg, po by LC/MS/MS analysis; assay type: ADME, organism-based; conditions: in vivo, read-out: Vdss
[27] = Half life in rat at 1 mg/kg, iv and 2 mg/kg, po by LC/MS/MS analysis; assay type: ADME, organism-based; conditions: in vivo
[28] = Drug uptake in established diet-induced obese C57BL/6 mouse blood at 10 mg/kg, po qd for 2 days; assay type: ADME, organism-based; set-up: dose 10 mg/kg, route oral; conditions: read-out: Drug uptake
[29] = molecular target: T1, Lysosomal Pro-X carboxypeptidase (Mus musculus); test: Inhibition of mouse PrCP in 3 mg/kg, po administered qd for 2 days established diet-induced obese C57BL/6 mouse heat inactivated plasma; assay type: organism-based; set-up: dose 3 mg/kg; conditions: at 3 mg/kg
[30] = test system: Mus musculus; test: Antiobesity activity in PrCP knockout mouse assessed as reduction of body weight at 30 mg/kg, po qd for 5 days; assay type: functional, organism-based; set-up: dose 30 mg/kg
[31] = Ratio of drug level in brain to plasma in p-gp-/- mouse at 3 mg/kg, po after 4 hrs; assay type: ADME, organism-based; set-up: dose 3 mg/kg, route oral; conditions: brain and plasma, read-out: BPR
[32] = Oral bioavailability in C57BL/6 mouse at 2 mg/kg by LC/MS/MS analysis; assay type: ADME, organism-based; conditions: in vivo
[33] = Half life in C57BL/6 mouse at 1 mg/kg, iv and 2 mg/kg, po by LC/MS/MS analysis; assay type: ADME, organism-based; conditions: in vivo
[34] = test system: Mus musculus; test: Dose normalized AUC in C57BL/6 mouse at 2 mg/kg by LC/MS/MS analysis; assay type: ADME, organism-based; set-up: dose 2 mg/kg; conditions: in vivo
[35] = Clearance in rat at 1 mg/kg, iv and 2 mg/kg, po by LC/MS/MS analysis; assay type: ADME, organism-based; conditions: in vivo
[36] = Plasma concentration in established diet-induced obese wild type C57BL/6 mouse at 30 mg/kg, po qd for 5 days measured on day 6; assay type: ADME, organism-based; set-up: dose 30 mg/kg, route oral
[37] = molecular target: T1, Lysosomal Pro-X carboxypeptidase (Mus musculus); test: Inhibition of mouse PrCP in 30 mg/kg, po qd for 5 days established diet-induced obese wild type C57BL/6 mouse heat inactivated plasma measured on day 6; assay type: organism-based; set-up: dose 30 mg/kg; conditions: at 30 mg/kg
[38] = molecular target: T2, Lysosomal Pro-X carboxypeptidase; test: Inhibition of mouse PrCP
[39] = Drug uptake in established diet-induced obese wild type C57BL/6 mouse brain at 30 mg/kg, po qd for 5 days measured on day 6; assay type: ADME, organism-based; set-up: dose 30 mg/kg, route oral; conditions: read-out: Drug uptake
[40] = molecular target: T1, Lysosomal Pro-X carboxypeptidase (Mus musculus); test: Inhibition of mouse PrCP in 30 mg/kg, po administered qd for 2 days established diet-induced obese C57BL/6 mouse heat inactivated plasma; assay type: organism-based; set-up: dose 30 mg/kg; conditions: at 30 mg/kg
[41] = Volume of distribution at steady state in dog at 1 mg/kg, iv and 2 mg/kg, po by LC/MS/MS analysis; assay type: ADME, organism-based, Canis lupus familiaris; conditions: in vivo, read-out: Vdss
[42] = Oral bioavailability in dog at 2 mg/kg by LC/MS/MS analysis; assay type: ADME, organism-based, Canis lupus familiaris; conditions: in vivo

For FC(F)(F)Oc1ccc(CN2CCC3(CC2)OC(c2cc(Cl)ccn2)c2ccccc23)cc1 (configuration not stated), which concentration at 48 h [1] is on record?
The concentration at 48 h was 240 nM.

What about the fraction unbound [2] of the same compound?
Its fraction unbound is under 0.0006.

And the inhibition [3]?
Its inhibition is “Dose-dependent effect”.

What about the IC50 [4] of the same compound?
Its IC50 is 23 nM.

What about the inhibition [5] of the same compound?
The inhibition was 82%.

And the concentration at 48 h [6]?
Its concentration at 48 h is 80 nM.

What about the Activity [7] of the same compound?
The Activity was “inactive”.

And the bioavailability [8]?
Its bioavailability is 60%.

And the concentration at 48 h [9]?
Its concentration at 48 h is 50 nM.

And the concentration at 120 h [10]?
The concentration at 120 h was 820 nM.

What about the concentration at 120 h [11] of the same compound?
Its concentration at 120 h is 1570 nM.

What about the concentration at 48 h [12] of the same compound?
Its concentration at 48 h is 520 nM.

And the clearance [13]?
Its clearance is 45 mL/min/kg.

What about the AUC/dose [14] of the same compound?
Its AUC/dose is 1.8 µM·kg·h/mg.

And the concentration at 48 h [15]?
Its concentration at 48 h is 110 nM.

What about the Kp at 4 h [16] of the same compound?
Its Kp at 4 h is 0.94.

What about the concentration at 48 h [17] of the same compound?
The concentration at 48 h was 590 nM.

And the concentration at 48 h [18]?
The concentration at 48 h was 30 nM.

What about the half-life [19] of the same compound?
Its half-life is 14 h.

What about the fraction unbound [20] of the same compound?
Its fraction unbound is under 0.0006.

What about the clearance [21] of the same compound?
The clearance was 5.9 mL/min/kg.

What about the AUC/dose [22] of the same compound?
Its AUC/dose is 5 µM·kg·h/mg.

What about the inhibition [23] of the same compound?
The inhibition was 61%.

What about the concentration at 48 h [24] of the same compound?
Its concentration at 48 h is 520 nM.

What about the Vd [25] of the same compound?
Its Vd is 20 L/kg.

What about the Vd [26] of the same compound?
Its Vd is 5.9 L/kg.

And the half-life [27]?
The half-life was 8.9 h.

What about the concentration at 48 h [28] of the same compound?
The concentration at 48 h was 280 nM.

What about the inhibition [29] of the same compound?
The inhibition was 53%.

And the Activity [30]?
The Activity was “inactive”.

And the Kp at 4 h [31]?
Its Kp at 4 h is 1.9.

What about the bioavailability [32] of the same compound?
The bioavailability was 35%.

And the half-life [33]?
Its half-life is 6.7 h.

What about the AUC/dose [34] of the same compound?
The AUC/dose was 0.28 µM·kg·h/mg.

And the clearance [35]?
Its clearance is 11 mL/min/kg.

What about the concentration at 120 h [36] of the same compound?
The concentration at 120 h was 1420 nM.

And the inhibition [37]?
The inhibition was 88%.

And the IC50 [38]?
The IC50 was 0.18 nM.

What about the concentration at 120 h [39] of the same compound?
The concentration at 120 h was 690 nM.

What about the inhibition [40] of the same compound?
The inhibition was 93%.

And the Vd [41]?
The Vd was 5.5 L/kg.

What about the bioavailability [42] of the same compound?
The bioavailability was 88%.
